Results taken from BindingDB's records for doi:10.1021/acs.jmedchem.0c02247 (Nanjing University of Chinese Medicine, 2021).

What was measured:
[1] = Inhibition of FLT3 ITD mutant (unknown origin) expressed in mouse BaF3 cells assessed as antiproliferative activity incubated for 72 hrs by CCK8 assay
[2] = Inhibition of TEL-FLT3 D835V mutant (unknown origin) expressed in mouse BaF3 cells assessed as antiproliferative activity incubated for 72 hrs by CCK8 assay
[3] = Inhibition of FLT3 ITD/D835V double mutant (unknown origin) expressed in mouse BaF3 cells assessed as antiproliferative activity incubated for 72 hrs by CCK8 assay

IC50 [1]: 13 nM
IC50 [2]: 30 nM
IC50 [3]: 27 nM
SMILES: Cc1c(NC(=O)CCN2CCCC2)c[nH]c1/C=C1\C(=O)Nc2ccc(F)cc21
